This series relates to tobacco budworm (Heliothis virescens [Fabricius]). The series can be described thus: surface-treated diet test against tobacco budworm. To be noted: 0.25 millimoles of candidate insecticide on the surface of the diet, second instar larvae, five-day exposure; for Percent Mortality: compared to the total number of insects infested; for Percent Growth Inhibition: inhibition of insect weight relative to untreated controls. The class given is in vivo. As for the experimental part: Candidate insecticides were evaluated for activity against the tobacco budworm (Heliothis virescens [Fabricius]) in a surface-treated diet test.
In this test one mL of molten (65-70° C.) wheat germ-based artificial diet was pipetted into each well of a four by six (24 well) multi-well plate (ID# 430345-15.5 mm dia.×17.6 mm deep; Corning Costar Corp., One Alewife Center, Cambridge, Mass. 02140). The diet was allowed to cool to ambient temperature before treatment with candidate insecticide.
For a determination of insecticidal activity, solutions of the candidate insecticides were prepared for testing using a Packard 204DT Multiprobe® Robotic System (Packard Instrument Company, 800 Research Parkway, Meriden, Conn. 06450), in which the robot first diluted a standard 50 millimolar DMSO solution of candidate insecticide with a 1:1 water/acetone solution (V/V) in a ratio of 1:7 stock solution to water/acetone. The robot subsequently pipetted 40 microliters of the so-prepared solution onto the surface of the diet in each of three wells in the 24 multi-well plate. The process was repeated with solutions of seven other candidate insecticides. Once treated, the contents of the multi-well plate were allowed to dry, leaving 0.25 millimoles of candidate insecticide on the surface of the diet, or a concentration of 0.25 millimolar. Appropriate untreated controls containing only DMSO on the diet surface were also included in this test.
For evaluations of the insecticidal activity of a candidate insecticide at varying rates of application, the test was established as described above using sub-multiples of the standard 50 millimolar DMSO solution of candidate insecticide. For example, the standard 50 millimolar solution was diluted by the robot with DMSO to give 5, 0.5, 0.05, 0.005, 0.0005 millimolar, or more dilute solutions of the candidate insecticide. In these evaluations there were six replicates of each rate of application placed on the surface of the diet in the 24 multi-well plate, for a total of four rates of application of candidate insecticide in each plate.
In each well of the test plate was placed one second instar tobacco budworm larvea, each weighing approximately five milligrams. After the larvae were placed in each well, the plate was sealed with clear polyfilm adhesive tape. The tape over each well was perforated to ensure an adequate air supply. The plates were then held in a growth chamber at 25° C. and 60% relative humidity for five days (light 14 hours/day).
After the five-day exposure period insecticidal activity for each rate of application of candidate insecticide was assessed as percent inhibition of insect weight relative to the weight of insects from untreated controls, and percent mortality when compared to the total number of insects infested.
The test compounds of formula I are identified by numbers that correspond to those in Table 1.

As to `Cc1ccc(C(=O)NN=C(c2ccc(OC(F)(F)F)cc2)C2CCN(Cc3ccc(-c4nnn(C)n4)cc3)CC2)cc1` [Compound 145], the “Percent Mortality” value is 100% and the “Percent Growth Inhibition” value was 100%. In the case of `COc1ccc(C(=O)NN=C(c2ccc(OC(F)(F)F)cc2)C2CCN(Cc3ccc(-c4nnn(C)n4)cc3)CC2)cc1` [Compound 146], the “Percent Mortality” value amounted to 100% and the “Percent Growth Inhibition” value is reported as 100%. For the molecule `CCn1nnc(-c2ccc(CN3CCC(C(=NNC(=O)c4ccc(C(F)(F)F)cc4)c4ccc(OC(F)(F)F)cc4)CC3)cc2)n1` [Compound 147], the “Percent Mortality” value stood at 100% and the “Percent Growth Inhibition” value is 92%. Regarding `Cn1nnc(-c2ccc(CN3CCC(C(=NNC(=O)c4ccc(OC(F)(F)F)cc4)c4ccc(OC(F)(F)F)cc4)CC3)cc2)n1` [Compound 148], the “Percent Mortality” value is given as 100% and the “Percent Growth Inhibition” value amounted to 100%. For `CCn1nnc(-c2ccc(CN3CCC(/C(=N\NC(=O)c4ccc(OC(F)(F)F)cc4)c4ccc(OC(F)(F)F)cc4)CC3)cc2)n1` [Compound 149, N-[1-aza-2-(1-{[4-(2-ethyl(1,2,3,4-tetraazol-5-yl))phenyl]methyl}(4-piperidyl))-2-[4-(trifluoromethoxy)phenyl]vinyl][4-(trifluoromethoxy)phenyl]carboxamide], the “Percent Mortality” value is given as 100% and the “Percent Growth Inhibition” value was determined as 96%.

For the molecule `Clc1ccc(C(c2ccc(Cl)cc2)N2CCN(Cc3ccc(Oc4ncccn4)cc3)CC2)cc1` [Compound 167], the “Percent Mortality” value worked out at 100% and the “Percent Growth Inhibition” value stood at 100%. As to `FC(F)(F)c1ccc(C(c2ccc(Cl)cc2)N2CCN(Cc3ccc(Oc4ncccn4)cc3)CC2)cc1` (stereo not shown) [Compound 168], the “Percent Mortality” value was 100% and the “Percent Growth Inhibition” value was 100%. Consider `FC(F)(F)c1ccc(C(c2ccc(C(F)(F)F)cc2)N2CCN(Cc3ccc(Oc4ncccn4)cc3)CC2)cc1` [Compound 169, 2-{4-[(4-{bis[4-(trifluoromethyl)phenyl]methyl}piperazinyl)methyl]phenoxy}pyrimidine], for which the “Percent Growth Inhibition” value is given as 100%. `[O-][N+]1(Cc2ccc(Oc3ccccc3F)cc2)CCN(C(c2ccc(OC(F)(F)F)cc2)c2ccc(OC(F)(F)F)cc2)CC1` [Compound 172]: the “Percent Mortality” value is 100% and the “Percent Growth Inhibition” value amounted to 100%. Consider `CC(C)OC(=O)Nc1ccc(C[N+]2([O-])CCN(C(c3ccc(C(F)(F)F)cc3)c3ccc(C(F)(F)F)cc3)CC2)cc1` [Compound 174], for which the “Percent Mortality” value was determined as 100% and the “Percent Growth Inhibition” value is on record as 100%. As for `CCn1nnc(-c2ccc(C[N+]3([O-])CCN(C(c4ccc(C(F)(F)F)cc4)c4ccc(C(F)(F)F)cc4)CC3)cc2)n1` [Compound 175], the “Percent Mortality” value worked out at 100% and the “Percent Growth Inhibition” value is 100%. As for `[O-][N+]1(Cc2ccc(Oc3ccccn3)cc2)CCN(C(c2ccc(Cl)cc2)c2ccc(C(F)(F)F)cc2)CC1` (stereo not shown) [Compound 176], the “Percent Mortality” value was 100% and the “Percent Growth Inhibition” value was 100%. On to `[O-][N+]1(Cc2ccc(Oc3ccccn3)cc2)CCN(C(c2ccc(C(F)(F)F)cc2)c2ccc(C(F)(F)F)cc2)CC1` [Compound 177], for which the “Percent Mortality” value is 100% and the “Percent Growth Inhibition” value is 100%. In the case of `[O-][N+]1(Cc2ccc(Oc3ncccn3)cc2)CCN(C(c2ccc(Cl)cc2)c2ccc(Cl)cc2)CC1` [Compound 178], the “Percent Mortality” value is 0% and the “Percent Growth Inhibition” value is on record as 100%. Consider `[O-][N+]1(Cc2ccc(Oc3ncccn3)cc2)CCN(C(c2ccc(Cl)cc2)c2ccc(C(F)(F)F)cc2)CC1` (stereo not shown) [Compound 179], for which the “Percent Mortality” value came to 100% and the “Percent Growth Inhibition” value amounted to 100%. `[O-][N+]1(Cc2ccc(Oc3ncccn3)cc2)CCN(C(c2ccc(C(F)(F)F)cc2)c2ccc(C(F)(F)F)cc2)CC1` [Compound 180, 2-{4-[(4-{bis[4-(trifluoromethyl)phenyl]methyl}1-oxypiperazinyl)methyl]phenoxy}pyrimidine]: the “Percent Mortality” value is 100% and the “Percent Growth Inhibition” value was determined as 100%.

Values taken from US7365082B2, “N-(substituted arylmethyl)-4-(disubstituted methyl)piperidines and piperazines” (Bayer CropScience AG, priority 2002, dated 2008).
